# Assays:
# Format in all cases: cell-based
# mouse PPARδ = biological target: T1, mouse PPARδ (Mus musculus, UniProt P35396); assay: PPAR delta transactivation (GAL4 chimeric receptor luciferase reporter) assay; conditions: GAL4-mPPAR δ chimeric receptor, pFR-Luc reporter, HEK293T cells, 20 hours incubation; read-out: Gene Activation Assay: EC50 (<10 μM) PPAR delta
# T1 construct: expressed in transfected cells; host or cells: HEK293T
# T1 sequence (P35396 210-438 limits assumed): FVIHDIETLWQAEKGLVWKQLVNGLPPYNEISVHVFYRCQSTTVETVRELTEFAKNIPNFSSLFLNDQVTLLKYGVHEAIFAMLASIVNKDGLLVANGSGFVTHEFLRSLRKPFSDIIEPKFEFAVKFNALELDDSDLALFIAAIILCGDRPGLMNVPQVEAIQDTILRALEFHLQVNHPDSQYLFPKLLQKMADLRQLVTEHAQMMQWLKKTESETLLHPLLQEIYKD
# From the text: (§1) Measurement of PPARγ, δ, and α Transactivation Activity.
# (§2) Chimeric receptors were constructed in which the yeast transcription factor GAL4 DNA binding domain was fused to the ligand binding domain of either mouse PPARγ, mouse PPARδ or mouse PPAR α in order to assess the ability of the compounds of the present invention to activate gene expression in a PPAR-dependent manner. The chimeric receptor expression plasmids (GAL4-mPPARγ, GAL4-mPPAR δ and GAL4-PPAR α) and the reporter plasmid containing 5×GAL4 binding site (pFR-Luc, obtained from Stratagene) were transfected into HEK293T cells using the Lipofectamine 2000 reagent (Invitrogen), according to the manufacturers instructions. Six hours after transfection, the culture medium was renewed and the cells were incubated for 20 hours in presence of either 1) DMSO (vehicle), 2) a compound of the invention or 3) a reference compound for comparison. Rosiglitazone (obtained from WDF Pharma) was used as a reference compound for the PPARγassay; GW501516 (prepared as described in Sznaidman et al. Bioorg. Med. Chem. Lett. (2003) 13:1517-1521) was used as a reference compound for the PPAR δ assay and GW7647 (obtained from Sigma) was used as a reference compound for the PPAR α assay. Luciferase activity was measured as a reporter of gene expression. Luciferase activity on the cell lysates using the Steady-Glo reagent was measured according to the manufacturers instructions.
# mouse PPARγ = biological target: T2, mouse PPARγ (Mus musculus, UniProt P37238); assay: PPAR gamma transactivation (GAL4 chimeric receptor luciferase reporter) assay; conditions: GAL4-mPPARγ chimeric receptor, pFR-Luc reporter, HEK293T cells, 20 hours incubation; read-out: Gene Activation Assay: EC50 (<10 μM) PPAR gamma
# T2 construct: expressed in transfected cells; host or cells: HEK293T
# T2 sequence (P37238 238-503 limits assumed): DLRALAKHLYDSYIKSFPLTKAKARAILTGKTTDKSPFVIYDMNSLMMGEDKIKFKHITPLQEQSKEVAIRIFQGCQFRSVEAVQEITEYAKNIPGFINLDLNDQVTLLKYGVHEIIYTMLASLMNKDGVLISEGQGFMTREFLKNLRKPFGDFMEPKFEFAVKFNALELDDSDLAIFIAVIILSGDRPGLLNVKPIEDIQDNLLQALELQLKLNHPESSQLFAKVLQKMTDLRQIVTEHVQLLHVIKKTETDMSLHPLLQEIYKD
# From the text: as §1, §2
# mouse PPAR α = biological target: T3, mouse PPAR α (Mus musculus, UniProt P23204); assay: PPAR alpha transactivation (GAL4 chimeric receptor luciferase reporter) assay; conditions: pFR-Luc reporter, HEK293T cells, 20 hours incubation, read-out: Gene Activation Assay: EC50 (<10 μM) PPAR alpha
# T3 construct: expressed in transfected cells; host or cells: HEK293T
# T3 sequence (P23204 239-466 limits assumed): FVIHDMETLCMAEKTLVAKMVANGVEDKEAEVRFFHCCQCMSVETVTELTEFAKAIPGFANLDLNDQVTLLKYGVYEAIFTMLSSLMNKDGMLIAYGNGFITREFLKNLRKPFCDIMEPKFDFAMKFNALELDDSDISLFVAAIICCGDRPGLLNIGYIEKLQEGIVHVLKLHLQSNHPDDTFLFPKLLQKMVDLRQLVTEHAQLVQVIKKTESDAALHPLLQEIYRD
# From the text: as §1, §2
EC50 (mouse PPARδ),EC50 (mouse PPARγ),EC50 (mouse PPAR α),Structure (SMILES)
< 10 µM,> 30 µM,> 10 µM,"Cc1nn(-c2ccc(C(F)(F)F)cc2)nc1COc1ccc2c(ccn2CC(=O)O)c1 [Compound 20, {5-[5-Methyl-2-(4-trifluoromethyl-phenyl)-2H-[1,2,3]triazol-4-ylmethoxy]-indol-1-yl}-acetic acid]"
< 10 µM,< 10 µM,< 10 µM,"Cc1nn(-c2ccc(C(F)(F)F)cc2)nc1COc1ccc2ccn(CC(=O)O)c2c1 [Compound 130, {6-[5-Methyl-2-(4-trifluoromethyl-phenyl)-2H-[1,2,3]triazol-4-ylmethoxy]-indol-1-yl}-acetic acid]"
< 10 µM,> 10 µM,> 10 µM,"Cc1nn(-c2ccc(C(F)(F)F)cc2)nc1COc1ccc2c(CC(=O)O)coc2c1 [Compound 160, {6-[5-Methyl-2-(4-trifluoromethyl-phenyl)-2H-[1,2,3]triazol-4-ylmethoxy]-benzofuran-3-yl}-acetic acid]"
< 10 µM,> 30 µM,> 10 µM,"Cc1nn(-c2ccc(C(F)(F)F)cc2)nc1COc1ccc2c(c1)OCC2CC(=O)O (stereo not drawn) [Compound 700, {6-[5-Methyl-2-(4-trifluoromethyl-phenyl)-2H-[1,2,3]triazol-4-ylmethoxy]-2,3-dihydro-benzofuran-3-yl}-acetic acid]"
